PubChem BioAssay (NCI)
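Dose response: 5 concentrations. Exposure: 48 h. Format: 96-well plates. Endpoint: linear interpolation; highest concentration if not reached. Definition used: TGI = concentration required for complete inhibition of growth.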

Columns and labels:
Assay in all cases: NCI anticancer screen, dose series, 48 h
HCT-116 colon = tested on: HCT-116 colon
A549 NSCLC = tested on: A549 NSCLC
SNB-19 CNS = tested on: SNB-19 CNS
MDA-MB-231 breast = tested on: MDA-MB-231 breast
SR leukemia = tested on: SR leukemia
HCT-15 colon = tested on: HCT-15 colon
EKVX NSCLC = tested on: EKVX NSCLC
786-0 renal = tested on: 786-0 renal
U251 CNS = tested on: U251 CNS
OVCAR-3 ovarian = tested on: OVCAR-3 ovarian

| Structure (SMILES) | TGI (HCT-116 colon) [µM] | TGI (A549 NSCLC) [µM] | TGI (SNB-19 CNS) [µM] | TGI (MDA-MB-231 breast) [µM] | TGI (SR leukemia) [µM] | TGI (HCT-15 colon) [µM] | TGI (EKVX NSCLC) [µM] | TGI (786-0 renal) [µM] | TGI (U251 CNS) [µM] | TGI (OVCAR-3 ovarian) [µM] |
| --- | --- | --- | --- | --- | --- | --- | --- | --- | --- | --- |
| O=C(/C=C/c1cccc(Br)c1)c1cccs1 | 18 | 36.2 | 28.3 | 38.8 | > 100 | 35.8 | 37.4 | 31.4 | 26.8 |  |
| C=C1C[C@@H](O)C[C@@]2(C)C[C@@H]3OC(=O)C(=C)[C@@H]3C[C@H]12 | 11.9 | 81 | 26.4 |  |  | 18.2 |  |  | 39.9 | 35.2 |
| COC(=O)c1cc(NC(=O)c2cc(NC(=O)c3cc([N+](=O)[O-])cn3C)cn2C)cn1C | > 100 | > 100 | > 100 | > 100 |  | > 100 | > 100 | > 100 | > 100 | > 100 |
| COc1ccccc1-c1cc(=O)c2ccccc2[nH]1 | > 100 | > 100 | > 100 |  | > 100 | > 100 | > 100 | > 100 | > 100 | > 100 |
| Cn1c(C(C#N)c2nc(Cl)ncc2Br)nc2ccccc21 (stereo unspecified) | > 100 | > 100 | > 100 | > 100 |  | > 100 | > 100 | > 100 | > 100 | > 100 |
| CCOc1ccc(/C=C(\Cl)c2ccc(OC)c(OC)c2)cc1 | > 100 | > 100 | > 100 |  | 91.4 | > 100 | > 100 | > 100 | > 100 |  |
| CC(C)CCC[C@@H](C)[C@H]1CCC2C3CC=C4C[C@@H](Oc5c6ccccc6nc6ccccc56)CCC4C3CCC21 (stereo partly specified) | > 50 | > 50 | > 50 | > 50 |  | > 50 | > 50 | > 50 | > 50 | > 50 |
| O=C(Nc1nc2c(=O)[nH]cnc2s1)c1ccccc1 | > 100 | > 100 | > 100 |  | 61.9 | > 100 | > 100 | > 100 | > 100 | > 100 |
| O=C(Nc1c[nH]c(=O)[nH]c1=O)C(Cl)Cl | > 100 | > 100 | > 100 | > 100 |  | > 100 | > 100 | > 100 | > 100 | > 100 |
| COC(=O)C(CCc1ccccc1I)C1=CCC2(CC1)OCCO2 (stereo unspecified) |  | > 100 | > 100 | > 100 | > 100 | > 100 | > 100 | > 100 | > 100 | > 100 |
| CCCCCCCCCCCCCCCCCCNc1ccn(C2OC(COP(=O)(O)OCC3CCC(n4cnc5c(=O)[nH]cnc54)O3)C(O)C2O)c(=O)n1 (stereo unspecified) | > 100 | > 100 | > 100 |  |  | > 100 | > 100 | > 100 | > 100 | > 100 |
| CNc1ccc(-c2nc3cc(C)ccc3o2)cc1 | > 100 | > 100 | > 100 | > 100 |  | > 100 | > 100 | > 100 | > 100 | > 100 |
| CCOc1cc(NC(C)=O)ccc1C(=O)NN1C(=O)C(Oc2ccccc2)C1c1ccccc1 (stereo unspecified) | > 100 |  |  | > 100 | 23.7 | > 100 | > 100 | > 100 |  | > 100 |
| O=c1[nH]nc(-c2ccccc2)n1/N=C/c1c[nH]c2ccccc12 | > 100 | > 100 | > 100 | > 100 |  | > 100 | > 100 | > 100 | > 100 | > 100 |
| O=C1O/C(=C(\Br)c2cccc3ccccc23)c2ccccc21 | > 61.9 | 35.9 |  |  | 51.5 | > 65.6 | > 59.7 | 31.4 | > 100 | > 57.2 |
| CCOC(=O)c1cc(C(=O)c2ccccc2)n2nc(-c3ccc(Cl)cc3)ccc12 | > 100 | 30.8 | 34.8 | > 100 | > 100 | > 100 | 42.6 | 33 | 66.3 |  |
| CCN(CC)CCCOC(=O)/C=C/c1c(C)[nH]c(=O)[nH]c1=O | > 625 | > 625 | > 625 |  |  | > 625 | > 625 |  | > 625 | > 625 |
| CC(C)SC(C)(NC(=O)C1C(C)(C)CCC1(C)C)C(=O)O (stereo unspecified) | > 100 | > 100 | > 100 | > 100 | > 100 | > 100 | > 100 | > 100 | > 100 |  |
| C=CCOCn1cnc2c(N)ncnc21 | > 100 | > 100 | > 100 | > 100 | > 100 | > 100 | > 100 | > 100 | > 100 |  |
| O=C(NCCC(F)(F)C(F)(F)C(F)(F)C(F)(F)F)NC1OC(CO)C(O)C(O)C1O (stereo unspecified) | > 100 | > 100 | > 100 | > 100 | > 100 | > 100 |  | > 100 | > 100 | > 100 |
| C=C1C(=O)OC2(C)C3CCC(C3)C12 (stereo unspecified) | > 100 | > 100 | > 100 |  | > 100 | > 100 | > 100 | > 100 | > 100 | > 100 |
| Cc1cc(O)c2c(c1O)C(=O)C13C(=C2O)C(=O)C2C(O)C1C1C(O)C3C(=O)C3=C(O)c4c(O)cc(C)c(O)c4C(=O)C321 (stereo unspecified) | 0.168 | 1.08 |  |  |  | 0.182 | 1.84 |  | 0.188 |  |
| Cc1sc2nc(-c3cc([N+](=O)[O-])c(Cl)cc3Cl)c(/C=N/N=C(N)N)n2c1C | > 100 | > 100 |  | 34.6 |  | > 100 | 48.4 | > 100 | > 100 | 30.3 |
| O=C(O)CCCCCOc1cccnc1/C=N/NC1=NCCN1 | > 100 | > 100 | > 100 |  | > 100 | > 100 | > 100 | > 100 | > 100 | > 100 |
